The record followed here is ChEMBL document CHEMBL3784978, “Stabilization of G-quadruplex DNA and inhibition of Bcl-2 expression by a pyridostatin analog” (Bioorg Med Chem Lett, 2016).

Calls of active or inactive are those of the source. The rule behind the calls is not given here.

Assay [1] is described as follows: Binding affinity to Bcl2 G-quadraplex DNA (unknown origin) assessed as binding constant at 8 uM by Stern-Volmer plot analysis in the presence of KCl and NaCl.
A short description of assay [2]: Binding affinity to duplex ds26 DNA (unknown origin) assessed as binding constant at 8 uM by Stern-Volmer plot analysis in the presence of KCl and NaCl.
The nature of assay [3]: Ratio of binding affinity to Bcl2 G-quadruplex DNA (unknown origin) to binding affinity to duplex ds26 DNA (unknown origin).
Assay [4] in a line: Binding affinity to duplex ds20 DNA (unknown origin) assessed as binding constant at 8 uM by Stern-Volmer plot analysis in the presence of KCl and NaCl.
A short description of assay [5]: Ratio of binding affinity to Bcl2 G-quadruplex DNA (unknown origin) to binding affinity to duplex ds20 DNA (unknown origin).
Assay [6] is filed under the species Homo sapiens. The experiment in a line: Binding affinity to duplex ds26 DNA (unknown origin) assessed as melting temprature at 12 uM by circular dichroism spectroscopic analysis in the presence of KCl and NaCl. (In general: Circular dichroism is widely used to follow secondary structure.)
In assay [7] the test system is HEp-2. Put plainly: Binding affinity to Bcl2 G-quadraplex DNA in human Hep2 cells assessed as reduction in Bcl-2 gene levels by real-time PCR method. The format is cell-based. On the technique in general: In qPCR the cycle at which signal appears reflects the starting amount.
A short description of assay [8]: Binding affinity to Bcl2 G-quadraplex DNA (unknown origin) assessed as melting temprature at 2 uM by circular dichroism spectroscopic analysis in the presence of KCl and NaCl.
Assay [9] has as its system HEp-2. The experiment in a line: Antiproliferative activity against human Hep2 cells measured up to 10 uM after 48 hrs by MTT assay. It is filed as functional, cell-based. A general note: Tetrazolium assays rely on reduction of a dye to a coloured formazan, in cell work by metabolically active cells.
Assay [10] can be described thus: Binding affinity to Bcl2 G-quadraplex DNA (unknown origin) assessed as melting temprature at 5 uM by circular dichroism spectroscopic analysis in the presence of KCl and NaCl.
Assay [11] concerns HEp-2. The experiment in a line: Binding affinity to Bcl2 G-quadraplex DNA in human Hep2 cells assessed as reduction in Bcl-2 expression co-transfected in pRL-TK plasmid vector after 48 hrs by dual-luciferase reporter assay. The format is cell-based.

On to `NCCOc1cc(C(=O)Nc2cc(OCCN)c3ccccc3n2)nc(C(=O)Nc2cc(OCCN)c3ccccc3n2)c1`, for which the Ka in assay [1] is 6.97 ×10⁵ L/mol; in assay [2], 1.52 ×10⁵ L/mol; in assay [4], 1.36 ×10⁵ L/mol. In addition, the Ratio in assay [3] and in [5] was 4 in each case.

Take `CN(C)CCOc1cc(NC(=O)c2cc(OCCN)cc(C(=O)Nc3cc(OCCN(C)C)c4ccccc4n3)n2)nc2ccccc12`: the figures for the Ka in [1], in [2] and in assay [4] were 4.29 ×10⁵ L/mol, 0.66 ×10⁵ L/mol and 0.28 ×10⁵ L/mol, respectively. Further, the Ratio in assay [3] and in [5] was 6.5 each time. The Tm in [6] worked out at 68 °C; in assay [8], 56 °C; in [10], 71 °C. The outcome in assay [7] and in assay [9] was Active. Besides, the Activity result in assay [11] was “Dose-dependent effect”.
